Laboratory results reported in BindingDB's records for doi:10.3109/14756366.2012.663362 (Institute for Advanced Studies in Basic Sciences (IASBS), 2013).

Target: Acetylcholinesterase (Electrophorus electricus, UniProt O42275)
Experiment: AChE Inhibition Assay
Conditions: pH 8; 25 °C
Procedure: Inhibitory activities of synthesized α-oxycarbanilinophosphonates were determined at 25°C by the colorimetric method of Ellman et al. [Ellman et al., Biochem. Pharmacol., 7:88-95]. The assay solution contained 0.1 M phosphate buffer, pH 8, 0.3 mM 5,5'-dithiobis(2-nitrobenzoic acid) (DTNB), 0.125 units of AChE (Sigma Chemical Co. from electric eel (Electrophorous electricus)), and 0.2 mM acetylthiocholine iodide as the substrate in a total volume of 2.5 mL. In order to provide sufficient time for interaction with either PAS and/or active site of the enzyme, particularly in competition with the substrate, the synthesized compounds were added to the assay solution and preincubated with the enzyme for 10 min at 25°C. In order to solubilize the synthesized compounds, the reaction mixture contained 2% ethanol (50 μL in 2.5 mL reaction mixture volume). Control experiments were run and it was seen that no inhibitory effect was exerted on the enzyme by ethanol. The changes in abs

Acetylcholinesterase, sequence (O42275 whole entry): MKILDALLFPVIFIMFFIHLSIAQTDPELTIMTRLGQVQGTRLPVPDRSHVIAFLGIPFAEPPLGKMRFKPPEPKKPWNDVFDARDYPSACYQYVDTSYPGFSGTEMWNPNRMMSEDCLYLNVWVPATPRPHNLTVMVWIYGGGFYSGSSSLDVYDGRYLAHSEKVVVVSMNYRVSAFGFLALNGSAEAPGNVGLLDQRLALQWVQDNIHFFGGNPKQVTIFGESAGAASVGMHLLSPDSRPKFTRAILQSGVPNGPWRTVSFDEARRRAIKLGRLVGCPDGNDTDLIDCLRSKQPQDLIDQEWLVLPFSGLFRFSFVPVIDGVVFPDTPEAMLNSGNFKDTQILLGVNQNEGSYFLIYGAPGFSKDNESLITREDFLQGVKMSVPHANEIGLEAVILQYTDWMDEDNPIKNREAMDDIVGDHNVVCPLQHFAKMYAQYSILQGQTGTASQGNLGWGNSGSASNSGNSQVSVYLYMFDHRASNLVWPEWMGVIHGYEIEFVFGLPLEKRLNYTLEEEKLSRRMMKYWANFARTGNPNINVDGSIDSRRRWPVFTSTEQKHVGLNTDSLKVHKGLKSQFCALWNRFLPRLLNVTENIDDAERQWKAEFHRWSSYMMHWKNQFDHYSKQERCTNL

| Structure (SMILES) | IC50 [µM] |
| --- | --- |
| CCOP(=O)(OCC)C(OC(=O)Nc1ccc(C)c(Cl)c1)c1ccc(Cl)cc1Cl (stereo not given) [Diethyl[(3-chloro-4-methylanilinocarbonyl)oxy](2,4-dichlorophenyl)methyl phosphonate (4h)] | 6.36 |
| CCOP(=O)(OCC)C(OC(=O)Nc1ccccc1)c1ccc(SC)cc1 (stereo not drawn) [α-Oxycarbanilinophosphonate, 4d] | 161 |
| CCOP(=O)(OCC)C(/C=C/c1ccccc1[N+](=O)[O-])OC(=O)Nc1ccccc1 (stereo not drawn) [α-Oxycarbanilinophosphonate, 4f] | 10.3 |
| CCOP(=O)(OCC)C(OC(=O)Nc1ccc(C)c(Cl)c1)c1ccc([N+](=O)[O-])cc1 (stereo not drawn) [α-Oxycarbanilinophosphonate, 4i] | 7.47 |
| CCOP(=O)(OCC)C(OC(=O)NCc1ccccc1)c1cccc2ccccc12 (stereo not drawn) [α-Oxycarbanilinophosphonate, 4l] | 418 |
